Experimental data as given in patent publication US7638283B2, “Amyloid β protein (globular assembly and uses thereof)” (Northwestern University, priority 1997, dated 2009).

Tests used:
B103 cells = experiment: FACScan assay for binding to intact cells; design: species or system rat
Method: For flow cytometry, cells are dissociated with 0.1% trypsin and plated at least overnight onto tissue culture plastic at low density. Cells are removed with cold PBS/0.5 mM EDTA, washed three times and resuspended in ice-cold PBS to a final concentration of 500,000 cells/mL. Cells are incubated in cold PBS with amyloid β oligomers prepared as described in Example 1, except that 10% of the amyloid β is an amyloid β 1-42 analog containing biocytin at position 1 replacing aspartate. Oligomers with and without inhibitor compounds present are added to the cells for 24 hours. The cells are washed twice in cold PBS to remove free, unbound amyloid β oligomers and resuspended in a 1:1,000 dilution of avidin conjugated to fluorescein and incubated for one hour at 4° C. with gentle agitation. Cells are analyzed by a Becton-Dickinson Fluorescence Activated Cell Scanner (FACScan). 10,000 or 20,000 events are collected for both forward scatter (size) and fluorescence intensity, and the data are analyzed by Consort 30 software (Becton-Dickinson). An alternative procedure uses amyloid β-specific antibodies and fluorescent secondary antibody instead of avidin, eliminating the need to incorporate 10% of the biotynylated amyloid β analog. FIG. 2 illustrates the ADDL-cell binding FACS analysis, and FIG. 3 illustrates the utility of the FACS assay for identification of ADDL-blocking compounds.

fyn kinase = fyn kinase activity in B103 cells; format: cell-based, rat
[1] = test system: hippocampal brain slice cultures; experiment: Brain slice assay (LIVE/DEAD cell death); format: cell-based, mouse
Method: (§1) An adult mouse is sacrificed by carbon dioxide inhalation, followed by rapid decapitation. The head is emersed in cold, sterile dissection buffer (94 ml Gey's balanced salt solution, pH 7.2, supplemented with 2 mL 0.5M MgCl2, 2 ml 25% glucose, and 2 mL 1.0 M Hepes.), after which the brain is removed and placed on a sterile Sylgard-coated plate. The cerebellum is removed and a mid-line cut is made to separate the cerebral hemispheres. Each hemisphere is sliced separately. The hemisphere is placed with the mid-line cut down and a 30 degree slice from the dorsal side is made to orient the hemisphere. The hemisphere is glued cut side down on the plastic stage of a Campden tissue chopper (previously wiped with ethanol) and emersed in ice cold sterile buffer. Slices of 200 μm thickness are made from a lateral to medial direction, collecting those in which the hippocampus is visible. […] Cell death is measured using the LIVE/DEAD® assay kit (Molecular Probes, Eugene, Oreg.). This a dual-label fluorescence assay in which live cells are detected by the presence of an esterase that cleaves calcein-AM to calcein, resulting in a green fluorescence. Dead cells take up ethidium homodimer, which intercalates with DNA and has a red fluorescence. […] The MetaMorph image analysis system is used to quantify the number and/or area of cells showing green or red fluorescence. […]

hippocampal neurons = experiment: Neuronal viability in injected animals (brain slices after the LTP experiment); format: in vivo, mouse; settings: 20 nL injected into hippocampal region
Method: After the LTP experiment is performed, animals are allowed to remover for various times and then sacrificed using sodium pentobarbitol asesthetic and perfusion with 4% paraformaldehye. For viability studies, times of 3 hours, 24 hours, 3 days, and 7 days are used. The brain is cryoprotected with 30% sucrose and then sectioned ([…]) with a microtome. Sections are placed on slides subbed with gelatin and stained initially with cresyl violet. Cell loss is measured by counting cell bodies in the dentate gyrus, CA3, CA1, and entorhinal cortex and is correlated with dose and time of exposure of ADDLs.

[2] = test system: brain slice cultures lacking a functional fyn gene; experiment: Brain slice cultures from mice that lack a functional fyn gene; format: cell-based, mouse; settings: compared to vehicle controls
Method: as §1

primary astrocytes = experiment: Activation of primary astrocyte cultures; format: cell-based
[3] = test system: hippocampus, synaptic activity (LTP); experiment: LTP assay in injected animals; format: in vivo, mouse
From the text: Injections of intact animals: Mice are anesthesized with urethane and placed in a sterotaxic apparatus. Body temperature is maintained using a heated water jacket pad. The brain surface is exposed through holes in the skull. Bregma and lambda positions for injection into the middle molecular layer of hippocampus are 2 mm posterior to bregma, 1 mm lateral to the midline, and 1.2-1.5 mm ventral to the brain surface. Amyloid β oligomer injections are by nitrogen puff through ˜[…] diameter glass pipettes. Volumes of 20-50 nL of amyloid β oligomer solution (180 nM of amyloid β) are given over the course of an hour. The animal is allowed to rest for varying time periods before the LTP stimulus is given.
LTP in injected animals: Experiments follow the paradigm established Routtenberg and colleagues for LTP in mice (Namgung, et al., 1995). Perforant path stimulation from the entorhinal cortex is used, with recording from the middle molecular layer and the cell body of the dentate gyrus. […] Some sections are placed on slides subbed with gelatin and others are analyzed using a free-floating protocol. […]
Wave forms are analyzed by machine as described previously (Colley, 1990, J. Neurosci.). […]

[4] = Neurotoxicity of amyloid β fractions and samples (test system not specified); format: cell-based; settings: supernatant compared with unfractionated amyloid β aggregated under literature conditions
neuronal cell cultures = experiment: Neurotoxicity in neuronal cell cultures; format: cell-based
Method: PC12 cells are passaged at 4×10^4 cell/well on a 96-well culture plate and grown for 24 hours in DMEM+10% fetal calf serum+1% S/P/F (streptomycin, penicillin, and fungizone). Plates are treated with 200 μg/mL poly-1-lysine for 2 hours prior to cell plating to enhance cell adhesion. One set of six wells is left untreated and fed with fresh media, while another set of wells is treated with the vehicle control (PBS containing 10% 0.01 N HCl, aged o/n at RT). Positive controls are treated with triton (1%) and Na Azide (0.1%) in normal growth media. Amyloid β oligomers prepared as described in Example 1, with and without inhibitor compounds present are added to the cells for 24 hours. After the 24 hour incubation, MTT (0.5 mg/mL) is added to the cells for 2.5 hours (11 μL of 5 mg/ml stock solubilized in PBS into 100 μL of media). Healthy cells reduce the MTT into a formazan blue colored product. After the incubation with MTT, the media is aspirated and 100 μL of 100% DMSO is added to lyse the cells and dissolve the blue crystals. The plate was incubated for 15 min at RT and read on a plate reader (ELISA) at 550 nm.
HN2 cells are passaged at 4×10^4 cells/well on a 96-well culture plate and grown for 24 hours in DMEM+10% fetal calf serum+1% S/P/F (streptomycin, penicillin, and fungizone). […] The plate is incubated for 15 min at RT and read on a plate reader (ELISA) at 550 nm.

serum starved B103 cells = experiment: Cell morphology by phase microscopy; format: cell-based, rat
Method: Cultures are grown to low density (50-60% confluence). To initiate the experiment, the cells are serum starved in F12 media for 1 hour. Cells are then incubated for 3 hours with amyloid β oligomers prepared as described in Example 1, with and without inhibitor compounds added to the cells for […]. After 3 hours, cells are examined for morphological differences or fixed for immunofluorescence labeling. Samples are examined using the MetaMorph Image Analysis system and an MRI video camera (Universal Imaging, Inc.).

Substance	receptor binding of ADDLs to B103 cells (B103 cells; 10% biotinylated amyloid β 1-42, fluorescent avidin conjugate, FACS)	fyn kinase activity in B103 cells (fyn kinase)	neurotoxicity in brain slice cultures ([1]; supernatant of amyloid β 1-42 incubated in F12 at 4° C., Live/Dead fluorescence assay)	cell death in brain slices after the LTP experiment (hippocampal neurons)	neurotoxicity in brain slice cultures from mice lacking a functional fyn gene [2]	activation of astrocytes (primary astrocytes)	mRNA for IL-1, inducible nitric oxide synthase, apo E, Apo J and α1-antichymotrypsin in astrocytes (primary astrocytes)	LTP consolidation phase, synaptic activity as cell body spike amplitude ([3]; 20 nL injected into hippocampal region 60-70 minutes prior to LTP, over the subsequent 2 hours, compared with control animals)	LTP stimulation phase ([3]; 20 nL injected into hippocampal region of adult mouse 60-70 minutes prior to LTP)	neurotoxicity of amyloid β fractions/samples [4]	neurotoxicity in neuronal cell cultures (neuronal cell cultures)	morphology of serum starved B103 cells (serum starved B103 cells)	blocking of ADDL binding in the receptor assay (B103 cells; at 10 μM)	blocking of the neurotoxic effects of ADDLs in the hippocampal brain slice assay ([1]; at 10 μM)
ADDLs: amyloid β peptide assembled into non-fibrillar oligomeric structures; soluble globular assemblies of amyloid β 1-42	saturable	activate fyn kinase activity	highly neurotoxic	no cell death had occurred	no increased neurotoxicity	become activated	become elevated	significant, continuing decline in synaptic activity	identical with saline control injections	significantly higher neurotoxicity	highly neurotoxic	rapid morphological change		
amyloid β 1-40 [reference compound]													capable of blocking ADDL binding	capable of blocking the neurotoxic effects of ADDLs
